The results in this text go back to ChEMBL document CHEMBL4765442, “Anti-Giardia Drug Discovery: Current Status and Gut Feelings” (J Med Chem, 2020).

The nature of series [1]: Half-life of the compound. The class given is physicochemical.
Series [2] relates to Giardia intestinalis. The experiment in a line: Antigiardial activity against Giardia lamblia WB (ATCC 30957) incubated for 3 days by [3H]thymidine incorporation based assay. The class given is functional, organism-based. To be noted: Giardia duodenalis.
The test system of series [3] is Giardia intestinalis. Briefly: Antigiardial activity against Giardia duodenalis Ah1 incubated for 3 days by fluorescence method. The class given is functional, organism-based. To be noted: Ah1, 72 h.
Series [4] relates to Giardia intestinalis. The experiment in a line: Antigiardial activity against Giardia duodenalis Ec1 incubated for 3 days by fluorescence method. It is filed as functional, organism-based. To be noted: Ec1, 72 h.
The test system of series [5] is Giardia intestinalis. Briefly: Antigiardial activity against Giardia duodenalis Ac1 incubated for 3 days by fluorescence method. To be noted: Ac1, 72 h. It is filed as functional, organism-based.
Series [6] has as its system Giardia intestinalis. The experiment in a line: Antigiardial activity against Giardia duodenalis WB (ATCC 30957) incubated for 3 days by fluorescence method. The class given is functional, organism-based. To be noted: WB ATCC 30957, 72 h.
In series [7] the test system is Giardia intestinalis. Briefly: Antigiardial activity against Giardia duodenalis GS/M-83-H7 (ATCC 50581) incubated for 3 days by fluorescence method. It is filed as functional, organism-based. To be noted: 72 h.
For series [8], the system named is Giardia intestinalis. The experiment in a line: Antigiardial activity against Giardia duodenalis Ac2 incubated for 3 days by fluorescence method. The class given is functional, organism-based. To be noted: Ac2, 72 h.
Series [9] relates to Giardia intestinalis. Briefly: Antigiardial activity against Giardia duodenalis G1 incubated for 3 days by fluorescence method. It is filed as functional, organism-based. To be noted: G1, 72 h.
Series [10] has as its system Giardia intestinalis. The experiment in a line: Antigiardial activity against Giardia duodenalis Ah2 incubated for 3 days by fluorescence method. The class given is functional, organism-based. To be noted: Ah2, 72 h.
The test system of series [11] is Giardia intestinalis. Briefly: Antigiardial activity against Giardia duodenalis Ec2 incubated for 3 days by fluorescence method. To be noted: Ec2, 72 h. It is filed as functional, organism-based.
For series [12], the system named is Giardia intestinalis. Briefly: Antimicrobial activity against Giardia lamblia BRIS/87/HEPU/713 trophozoites measured after 48 hrs by BacTiter-Glo cell viability assay. The class given is functional, organism-based. To be noted: Giardia duodenalis, BRIS/87/HEPU/713, 48 h.
A short description of series [13]: Selectivity ratio of CC50 for human HeLa cells incubated for 2 days by alamarBlue reagent to IC50 for Giardia lamblia BRIS/87/HEPU/713 measured after 48 hrs by BacTiter-Glo cell viability assay. The class given is toxicity. To be noted: read-out: Ratio CC50/IC50.
Series [14] relates to Giardia intestinalis. Briefly: Antigiardial activity against metronidazole-resistant Giardia duodenalis WB-M3. The class given is functional.
Series [15] relates to Giardia intestinalis. The experiment in a line: Antigiardial activity against metronidazole-resistant Giardia duodenalis 713-M3. The class given is functional.
For series [16], the system named is Giardia intestinalis. The experiment in a line: Antigiardial activity against metronidazole-resistant Giardia duodenalis 106-2ID10. It is filed as functional.
For series [17], the system named is Giardia intestinalis. Briefly: Antigiardial activity against Giardia intestinalis WB ATCC 30957 incubated for 72 hrs by hemocytometric counting method. It is filed as functional, organism-based. To be noted: Giardia duodenalis, WB ATCC 30957, 72 h.
Series [18] relates to Giardia intestinalis. The experiment in a line: Antigiardial activity against Giardia intestinalis IMSS:0696:1 incubated for 48 hrs followed by wash out by hemocytometric counting method. It is filed as functional, organism-based. To be noted: Giardia duodenalis, IMSS:0696:1, 48 h.
For series [19], the system named is Giardia intestinalis. The experiment in a line: Antigiardial activity against Giardia lamblia incubated for 48 hrs by ATPLite reagent based luminescence assay. It is filed as functional, organism-based. To be noted: Giardia duodenalis.
Series [20] concerns Giardia intestinalis. The experiment in a line: Antigiardial activity against Giardia lamblia GS/H7 trophozoites incubated for 3 days by microscopic method. To be noted: time 3 day. It is filed as functional, Giardia duodenalis.
Series [21] concerns Giardia intestinalis. Briefly: Antigiardial activity against Giardia lamblia 713M3 trophozoites incubated for 3 days by microscopic method. It is filed as functional, Giardia duodenalis. To be noted: time 3 day.
Series [22] relates to Giardia intestinalis. The experiment in a line: Antigiardial activity against Giardia intestinalis WB30957 incubated for 48 hrs followed by hemocytometric counting method. To be noted: Giardia duodenalis, WB30957, 48 h. The class given is functional, organism-based.
Series [23] concerns Giardia intestinalis. The experiment in a line: Antigiardial activity against Giardia intestinalis WB incubated for 48 hrs by hemocytometric counting method. It is filed as functional, organism-based. To be noted: Giardia duodenalis.
Series [24] concerns Giardia intestinalis. Briefly: Antigiardial activity against Giardia intestinalis IMSS-1090-1 incubated for 48 hrs followed by hemocytometric counting method. It is filed as functional, organism-based. To be noted: Giardia duodenalis, IMSS-1090-1, 48 h.
The subject of series [25] is Giardia intestinalis. The experiment in a line: Antigiardial activity against Giardia intestinalis BRIS/91/HEPU/1411 incubated for 48 hrs followed by compound wash out by hemocytometric counting method. The class given is functional, organism-based. To be noted: Giardia duodenalis, BRIS/91/HEPU/1411, 48 h.
Series [26] deals with Giardia intestinalis. Briefly: Antigiardial activity against Giardia intestinalis N1-INP incubated for 48 hrs followed by hemocytometric counting method. It is filed as functional, organism-based. To be noted: Giardia duodenalis.
The subject of series [27] is Giardia intestinalis. Briefly: Antigiardial activity against Giardia intestinalis UNAM-0688-2 incubated for 48 hrs followed by hemocytometric counting method. It is filed as functional, organism-based. To be noted: Giardia duodenalis, UNAM-0688-2, 48 h.

Values after ≈ are worked out from the molar mass of the structure shown. Some results are limits rather than exact numbers.

As for `CCS(=O)(=O)CCn1c([N+](=O)[O-])cnc1C` [TINIDAZOLE], the half-life – broadly, how long it takes for the measured level to halve – in series [1] was 12 h. The concentration for half-maximal inhibition (IC50) in the series on Giardia intestinalis [2], with Giardia intestinalis [3], in the series with Giardia intestinalis [4], in the series on Giardia intestinalis [5], in the series on Giardia intestinalis [6] and in the series with Giardia intestinalis [7] was 300 nM each time. The IC50 with Giardia intestinalis [8], with Giardia intestinalis [9], in the series on Giardia intestinalis [10] and in the series on Giardia intestinalis [11] was 300 nM in each case.
For `CC(=O)c1ccc(-c2cn(CCn3c([N+](=O)[O-])cnc3/C=C/c3ccco3)nn2)cc1`, the IC50 – broadly, the concentration that inhibits the measured activity by half – in the series with Giardia intestinalis [12] worked out at 3 nM. In series [13], the selectivity ratio at 48 h is above 16800.
Consider `Cc1ccc(C(Br)C(Br)c2ncc([N+](=O)[O-])n2C)cc1` (configuration not stated), for which the figures for the MIC in the series with Giardia intestinalis [14], against Giardia intestinalis [15] and in the series on Giardia intestinalis [16] were 5 µM (≈ 2.02 µg/mL), 10 µM (≈ 4.03 µg/mL) and 5 µM (≈ 2.02 µg/mL), respectively.
As to `Cc1ncc([N+](=O)[O-])n1CCNC(=O)/C=C/c1ccc([N+](=O)[O-])o1`, in the series on Giardia intestinalis [17], the concentration for half-maximal inhibition (IC50) turned out to be 5600 nM.
In the case of `Cc1ncc([N+](=O)[O-])n1CCOC(=O)Nc1ccc(F)cc1`, in the series with Giardia intestinalis [18], the IC50 was found to be 500 nM.
The same measure, in the same setting: as for `Cc1ncc([N+](=O)[O-])n1CCOC(=O)Nc1ccccc1`, the figure is 500 nM.
Still for that read-out and setting: as for `Cc1ncc([N+](=O)[O-])n1CC(C)OC(=O)Nc1ccc(F)cc1` (configuration not stated), the figure is 500 nM; as for `Cc1ncc([N+](=O)[O-])n1CC(C)OC(=O)NC1CCCCC1` (configuration not stated), 500 nM.
In the series on Giardia intestinalis [19], `CCN(CC)C(=S)SSC(=S)N(CC)CC` displayed a half-maximal inhibitory concentration (IC50) of 900 nM. Further, the values for the MLC in the series with Giardia intestinalis [20] and in the series with Giardia intestinalis [21] were 1.5 µM (≈ 0.445 µg/mL) and 0.8 µM (≈ 0.237 µg/mL), respectively.
In turn, `O=C(/C=C/c1ccc([N+](=O)[O-])o1)N1CCN(c2ccnc3cc(Cl)ccc23)CC1` yielded an IC50 with Giardia intestinalis [17] of 145000 nM.
Take `CSc1nc2cc(Cl)c(C(=O)Nc3ncc([N+](=O)[O-])s3)cc2n1C`: the half-inhibitory concentration (IC50) in the series on Giardia intestinalis [22] is 10 nM; with Giardia intestinalis [23], 10 nM; in the series with Giardia intestinalis [24], 10 nM; in the series with Giardia intestinalis [25], 10 nM; in the series with Giardia intestinalis [26] it was 71 nM; in the series with Giardia intestinalis [27], 10 nM.
Compound `Cc1ncc([N+](=O)[O-])n1CC(C)OC(=O)Nc1ccccc1` (configuration not stated) came in with an IC50 with Giardia intestinalis [18] of 500 nM.
As for `Cn1c(-c2ccc3c(c2)OCO3)cnc1/C=C/c1ncc([N+](=O)[O-])n1C`, the MIC (as a rule, the least concentration at which growth counts as inhibited) came out at 1 µM (≈ 0.353 µg/mL) against Giardia intestinalis [14], 0.5 µM (≈ 0.177 µg/mL) against Giardia intestinalis [15] and 1 µM (≈ 0.353 µg/mL) with Giardia intestinalis [16].
In the series with Giardia intestinalis [17], `Cc1ncc([N+](=O)[O-])n1CCN1CCN(c2ccnc3cc(Cl)ccc23)CC1` had an IC50 of 970 nM.
`Cc1ncc([N+](=O)[O-])n1CC(C)O` (configuration not stated) [SECNIDAZOLE] showed an IC50 with Giardia intestinalis [18] of 4100 nM.
